For the experiment, the system named is black nightshade (Solanam nigram). Kind of experiment: Field trial, post-emergence foliar application, weed control rating 0-100%. Format: in vivo. The settings on record: SOLNI, 56 days after first application, with 0.5 L/ha ACTIROB. The source says:
The (a) aminopyralid or an agriculturally acceptable salt or ester thereof is mixed with or applied in combination with (b) clopyralid or an agriculturally acceptable salt or ester thereof in an amount sufficient to induce a synergistic herbicidal effect. […] As described in the Herbicide Handbook of the Weed Science Society of America, Ninth Edition, 2007, p. 429, “‘synergism’ [is] an interaction of two or more factors such that the effect when combined is greater than the predicted effect based on the response to each factor applied separately.” Synergistic in the herbicide context can mean that the use of (a) and (b) as defined above results in an increased weed control effect compared to the weed control effects that are possible with the use of (a) or (b) alone. In some embodiments, the damage or injury to the undesired vegetation caused by the compositions and methods disclosed herein is evaluated using a scale from 0% to 100%, when compared with the untreated control vegetation, wherein 0% indicates no damage to the undesired vegetation and 100% indicates complete destruction of the undesired vegetation. […] 22 (1967) […]
Colby's equation was used to determine the herbicidal effects expected from the mixtures, as described above. The results were measured at 56 days after the first application of the compositions. […]

Where a name gives a salt, the structure may show the parent alone.

For `Nc1cc(Cl)nc(C(=O)O)c1Cl` [Aminopyralid Potassium Salt, 4-amino-3,6-dichloro-2-pyridinecarboxylic acid], the “Mean % weed control” value (1 g ae/ha applied alone) stood at 0%.

In the case of `O=C(O)c1nc(Cl)ccc1Cl` [Clopyralid-olamine, 3,6-dichloro-2-pyridinecarboxylic acid], under “90 g ae/ha applied alone”, the “Mean % weed control” value is listed as 37.5%.

These data come from patent US9629364B2, “Synergistic weed control from applications of aminopyralid and clopyralid” (Dow AgroSciences LLC, priority 2012, dated 2017).
